Experiment [1] deals with CD69 expression on CD19+ B cells in human whole blood stimulated with anti-human IgD. Put plainly: In Vitro whole blood CD69 Assay. In kind it is cell-based. Particulars: human heparinized whole blood, anti-human IgD stimulation overnight, percentage of CD19+ B cells expressing CD69, flow cytometry, read-out: IC50. In general terms: A flow cytometer gives signals particle by particle.

Experiment [2] has as its target BTK (Homo sapiens (Human), UniProt Q06187). Put plainly: In Vitro BTK Kinase Assay: Btk-PolyGAT-LS Assay. In kind it is biochemical. As to conditions: BTK enzyme 0.25 nM, ATP 10 μM, polyGAT 100 nM, 30 minutes incubation, TRF readout; read-out: IC50. Put shortly:
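Human BTK activity was measured with final 10 μM ATP and 100 nM polyGAT substrate in pH 7.5 Tris buffer with 10 mM MgCl2, DTT, Triton X-100 and casein.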

Read-outs that look alike come from different tables or passages of the source.

BTK, sequence (Q06187 whole entry): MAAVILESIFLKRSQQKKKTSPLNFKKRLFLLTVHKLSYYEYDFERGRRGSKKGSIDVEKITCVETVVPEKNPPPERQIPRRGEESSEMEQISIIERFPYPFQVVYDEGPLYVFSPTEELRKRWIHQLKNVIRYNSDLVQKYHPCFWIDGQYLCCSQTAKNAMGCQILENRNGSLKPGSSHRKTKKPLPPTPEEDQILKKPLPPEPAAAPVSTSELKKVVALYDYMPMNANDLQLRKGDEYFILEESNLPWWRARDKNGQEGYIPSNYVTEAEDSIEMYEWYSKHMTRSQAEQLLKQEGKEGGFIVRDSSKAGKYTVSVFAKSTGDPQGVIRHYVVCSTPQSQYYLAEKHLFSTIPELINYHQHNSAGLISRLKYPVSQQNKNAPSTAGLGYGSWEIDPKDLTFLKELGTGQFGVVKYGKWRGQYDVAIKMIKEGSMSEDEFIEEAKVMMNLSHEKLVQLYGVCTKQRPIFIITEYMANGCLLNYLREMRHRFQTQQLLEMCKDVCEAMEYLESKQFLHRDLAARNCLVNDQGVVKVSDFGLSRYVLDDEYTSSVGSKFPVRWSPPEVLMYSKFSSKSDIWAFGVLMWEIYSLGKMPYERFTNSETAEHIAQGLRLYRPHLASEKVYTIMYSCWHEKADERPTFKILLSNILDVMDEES

For `CC#CC(=O)N(C)[C@@H]1CC[C@H]2C[C@@]2(Oc2nc(-c3cnn(C)c3)cn3nccc23)C1` (single isomer, unassigned) [Example 115], the IC50 in experiment [1] (Homo sapiens, B-cell) lay in the range of 1000 to 10000 nM; in experiment [2], 1 to 10 nM.

As to `C#CC(=O)NCC1CCCN(c2nc(-c3cnn(C)c3)cn3nccc23)C1` (centres unmarked) [Example 25, N-((1-(6-(1-methyl-1H-pyrazol-4-yl)pyrazolo[1,5-a]pyrazin-4-yl)piperidin-3-yl)methyl)propiolamide], the IC50 in experiment [1] (Homo sapiens, B-cell) was greater than 10000 nM; in experiment [2], 1 to 10 nM.

As for `CC#CC(=O)N(C)[C@H]1CCC[C@@H](Oc2nc(-c3cnn(C)c3)cn3ncc(F)c23)C1` [Example 92, N-((1S,3R)-3-((3-fluoro-6-(1-methyl-H-pyrazol-4-yl)pyrazolo[1,5-a]pyrazin-4-yl)oxy)cyclohexyl)-N-methylbut-2-ynamide], the IC50 in experiment [1] (Homo sapiens, B-cell) is 1000 to 10000 nM; in experiment [2], less than 1 nM.

For `C=CC(=O)N1CCCC[C@@H](Oc2nc(-c3cnn(C)c3)cn3nccc23)C1` [Example 56, 1-[(3R)-3-[6-(1-methylpyrazol-4-yl)pyrazolo[1,5-a]pyrazin-4-yl]oxyazepan-1-yl]prop-2-en-1-one], the IC50 in experiment [1] (Homo sapiens, B-cell) is greater than 10000 nM; in experiment [2], 1 to 10 nM.

With `C=CC(=O)N1CCC[C@H](COc2nc(-c3cnn(C)c3)cn3nccc23)C1` [Example 14, (S)-1-(3-(((6-(1-methyl-1H-pyrazol-4-yl)pyrazolo[1,5-a]pyrazin-4-yl)oxy)methyl)piperidin-1-yl)prop-2-en-1-one], the IC50 is greater than 10000 nM in experiment [1] (Homo sapiens, B-cell) and 1 to 10 nM in experiment [2].

In the case of `C=CC(=O)N1CC[C@]2(C1)C[C@@](C)(Oc1nc(-c3cnn(C)c3)cn3nccc13)C2` [Example 213, rac-1-((2r,4s)-2-methyl-2-((6-(1-methyl-1H-pyrazol-4-yl)pyrazolo[1,5-a]pyrazin-4-yl)oxy)-6-azaspiro[3.4]octan-6-yl)prop-2-en-1-one], the results for the IC50 in experiment [1] and in experiment [2] were 1000 to 10000 nM and 1 to 10 nM, respectively.

On to `Cn1cc(-c2cn3nccc3c(N3CCCC(NC(=O)/C=C/CCl)C3)n2)cn1` (centres unmarked) [Example 22, 4-chloro-N-[1-[6-(1-methylpyrazol-4-yl)pyrazolo[1,5-a]pyrazin-4-yl]-3-piperidyl]but-2-enamide], for which the IC50 is 1000 to 10000 nM in experiment [1] (Homo sapiens, B-cell) and 1 to 10 nM in experiment [2].

`C=CC(=O)N1CC(Oc2nc(-c3cnn(C)c3)cn3nccc23)C1` [Example 9, 1-(3-((6-(1-methyl-1H-pyrazol-4-yl)pyrazolo[1,5-a]pyrazin-4-yl)oxy)azetidin-1-yl)prop-2-en-1-one]: the IC50 in experiment [1] (Homo sapiens, B-cell) is greater than 10000 nM; in experiment [2], 10 to 1000 nM.

Consider `C=CC(=O)N(C1CC1)[C@H]1C[C@@H](Oc2nc(-c3cnn(C)c3)cn3nccc23)C1` [Example 101, N-cyclopropyl-N-((cis)-3-((6-(1-methyl-1H-pyrazol-4-yl)pyrazolo[1,5-a]pyrazin-4-yl)oxy)cyclobutyl)acrylamide], for which the IC50 in experiment [1] (Homo sapiens, B-cell) was 1000 to 10000 nM; in experiment [2], less than 1 nM.

On to `C=CC(=O)N1CCC[C@@H](Nc2nc(-c3cnn(C)c3)cn3nccc23)CC1` (single isomer, unassigned) [Example 160], for which the IC50 in experiment [1] (Homo sapiens, B-cell) was 1000 to 10000 nM; in experiment [2] it was less than 1 nM.

For the compound `C/C=C\S(=O)(=O)N1CC(Oc2nc(-c3cnn(C)c3)cn3nccc23)C1` [Example 10, (Z)-6-(1-methyl-1H-pyrazol-4-yl)-4-((1-(prop-1-en-1-ylsulfonyl)azetidin-3-yl)oxy)pyrazolo[1,5-a]pyrazine], the IC50 in experiment [1] (Homo sapiens, B-cell) was greater than 10000 nM; in experiment [2] it was 10 to 1000 nM.

For the compound `Cn1cc(-c2cn3nccc3c(O[C@]3(C)C[C@H](NC(=O)/C=C/C(F)(F)F)C3)n2)cn1` [Example 231, (E)-4,4,4-trifluoro-N-((1s,3s)-3-methyl-3-((6-(1-methyl-1H-pyrazol-4-yl)pyrazolo[1,5-a]pyrazin-4-yl)oxy)cyclobutyl)but-2-enamide], the IC50 in experiment [1] (Homo sapiens, B-cell) is less than 1000 nM; in experiment [2], less than 1 nM.

Regarding `C=CC(=O)Nc1cccc(Oc2nc(-c3cnn(C)c3)cc3nccn23)c1` [Example 43], the half-inhibitory concentration (IC50) in experiment [1] (Homo sapiens, B-cell) is less than 1000 nM; in experiment [2] it was 1 to 10 nM.

Usually IC50 stands for the concentration that inhibits the measured activity by half.

Source of the values: patent US20240083900A1, “PYRAZOLO[1,5-A]PYRAZINE DERIVATIVES AS BTK INHIBITORS” (BIOGEN MA INC., priority 2020, published 2024).
